Measured values from article PMC5762315, “Inhibition of polo-like kinase 4 (PLK4): a new therapeutic option for rhabdoid tumors and pediatric medulloblastoma” (Oncotarget, 2017).
“And” between values parts separate entries of the source, which are not always exact repeats. Identical values can stand only once.

Assays:
Test in all cases: LanthaScreen Eu Kinase Binding Assay, panel of 486 biochemical kinase assays
various kinases [1] = molecular target: various kinases (Homo sapiens, UniProt O75716); settings: kinase STK16 (PKL12); LanthaScreen Binding
various kinases (Homo sapiens, UniProt O75716), sequence (O75716 whole entry): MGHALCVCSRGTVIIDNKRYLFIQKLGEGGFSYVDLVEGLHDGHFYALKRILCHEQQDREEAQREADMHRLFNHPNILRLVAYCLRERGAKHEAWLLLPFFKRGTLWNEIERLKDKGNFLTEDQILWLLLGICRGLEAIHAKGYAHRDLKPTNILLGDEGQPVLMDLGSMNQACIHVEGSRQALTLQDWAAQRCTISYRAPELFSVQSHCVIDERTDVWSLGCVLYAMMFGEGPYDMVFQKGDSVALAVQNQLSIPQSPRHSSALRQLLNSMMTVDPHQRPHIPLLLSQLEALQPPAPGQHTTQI

various kinases [2] = molecular target: various kinases (Homo sapiens, UniProt O94921); settings: CDK14 (PFTK1)/cyclin Y
various kinases [3] = molecular target: various kinases (Homo sapiens, UniProt P00519, Q252H); settings: ABL1 Q252H
various kinases [4] = molecular target: various kinases (Homo sapiens, UniProt P04049, Y340D/Y341D); settings: kinase RAF1 (cRAF) Y340D Y341D; LanthaScreen Binding
various kinases [5] = molecular target: various kinases (Homo sapiens, UniProt P07949, M918T); settings: kinase RET M918T; LanthaScreen Binding
various kinases (Homo sapiens, UniProt P07949, M918T), sequence (P07949 29-1114 M918T): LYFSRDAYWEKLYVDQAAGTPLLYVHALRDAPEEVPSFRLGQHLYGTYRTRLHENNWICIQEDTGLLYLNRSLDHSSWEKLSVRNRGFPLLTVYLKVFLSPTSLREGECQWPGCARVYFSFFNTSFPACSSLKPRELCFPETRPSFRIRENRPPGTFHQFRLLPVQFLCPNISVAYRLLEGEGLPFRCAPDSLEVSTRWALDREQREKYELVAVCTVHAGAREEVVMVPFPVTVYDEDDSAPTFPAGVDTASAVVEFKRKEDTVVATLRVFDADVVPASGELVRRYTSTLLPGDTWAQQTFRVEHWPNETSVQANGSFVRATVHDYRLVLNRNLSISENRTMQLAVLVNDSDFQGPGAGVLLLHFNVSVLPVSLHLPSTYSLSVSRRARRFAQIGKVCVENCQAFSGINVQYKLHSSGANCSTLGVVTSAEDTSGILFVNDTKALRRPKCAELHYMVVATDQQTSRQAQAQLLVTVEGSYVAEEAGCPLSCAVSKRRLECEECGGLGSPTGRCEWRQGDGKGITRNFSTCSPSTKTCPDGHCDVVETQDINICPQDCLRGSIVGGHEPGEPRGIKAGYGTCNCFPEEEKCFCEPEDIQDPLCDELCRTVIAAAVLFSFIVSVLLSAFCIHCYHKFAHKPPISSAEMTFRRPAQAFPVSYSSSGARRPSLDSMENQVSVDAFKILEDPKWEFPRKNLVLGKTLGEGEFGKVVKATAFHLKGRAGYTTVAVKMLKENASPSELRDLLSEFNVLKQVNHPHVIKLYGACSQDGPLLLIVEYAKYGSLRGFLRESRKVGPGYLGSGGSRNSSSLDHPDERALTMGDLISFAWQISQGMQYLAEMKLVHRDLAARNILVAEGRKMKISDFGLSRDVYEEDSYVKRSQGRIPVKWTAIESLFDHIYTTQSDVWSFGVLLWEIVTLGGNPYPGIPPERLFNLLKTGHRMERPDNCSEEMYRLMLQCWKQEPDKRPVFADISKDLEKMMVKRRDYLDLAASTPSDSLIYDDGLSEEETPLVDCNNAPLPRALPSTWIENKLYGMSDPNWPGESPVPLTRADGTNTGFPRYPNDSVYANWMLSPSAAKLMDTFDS

various kinases [6] = molecular target: various kinases (Homo sapiens, UniProt P22607, K650M); settings: FGFR3 K650M
various kinases [7] = molecular target: various kinases (Homo sapiens, UniProt P22694); settings: kinase PRKACB (PRKAC beta); LanthaScreen Binding
various kinases [8] = molecular target: various kinases (Homo sapiens, UniProt P45984); settings: MAPK9 (JNK2)
various kinases [9] = molecular target: various kinases (Homo sapiens, UniProt P50750)
various kinases (Homo sapiens, UniProt P50750), sequence (P50750 whole entry): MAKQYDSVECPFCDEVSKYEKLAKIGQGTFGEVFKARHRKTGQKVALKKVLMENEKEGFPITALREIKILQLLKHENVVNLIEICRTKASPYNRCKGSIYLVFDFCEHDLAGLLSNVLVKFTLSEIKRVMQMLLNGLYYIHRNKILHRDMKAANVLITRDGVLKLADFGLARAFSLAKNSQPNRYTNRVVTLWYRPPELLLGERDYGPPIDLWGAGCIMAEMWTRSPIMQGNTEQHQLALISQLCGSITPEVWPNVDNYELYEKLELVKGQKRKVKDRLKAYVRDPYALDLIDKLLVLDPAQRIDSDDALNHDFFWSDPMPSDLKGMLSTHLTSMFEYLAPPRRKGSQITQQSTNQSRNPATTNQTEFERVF

various kinases [10] = molecular target: various kinases (Homo sapiens, UniProt P54646)
various kinases (Homo sapiens, UniProt P54646), sequence (P54646 whole entry): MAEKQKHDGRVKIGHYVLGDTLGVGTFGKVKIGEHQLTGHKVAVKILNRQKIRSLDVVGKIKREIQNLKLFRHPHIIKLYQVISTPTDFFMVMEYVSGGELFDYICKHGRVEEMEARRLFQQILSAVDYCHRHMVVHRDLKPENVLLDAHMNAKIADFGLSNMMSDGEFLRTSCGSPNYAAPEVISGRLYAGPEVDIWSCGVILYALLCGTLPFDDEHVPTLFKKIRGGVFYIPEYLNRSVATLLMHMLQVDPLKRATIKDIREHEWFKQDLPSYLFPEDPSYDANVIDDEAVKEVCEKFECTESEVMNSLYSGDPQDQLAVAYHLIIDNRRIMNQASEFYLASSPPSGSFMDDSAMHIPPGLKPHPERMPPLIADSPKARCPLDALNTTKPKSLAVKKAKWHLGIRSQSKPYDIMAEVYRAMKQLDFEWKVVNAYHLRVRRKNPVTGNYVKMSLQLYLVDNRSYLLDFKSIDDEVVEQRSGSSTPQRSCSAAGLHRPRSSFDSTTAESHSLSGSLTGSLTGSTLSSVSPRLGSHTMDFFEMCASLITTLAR

various kinases [11] = molecular target: various kinases (Homo sapiens, UniProt P57059); settings: kinase SIK1; LanthaScreen Binding
various kinases [12] = molecular target: various kinases (Homo sapiens, UniProt Q02779); settings: MAP3K10 (MLK2)
various kinases [13] = molecular target: various kinases (Homo sapiens, UniProt Q08345); settings: DDR1
various kinases [14] = molecular target: various kinases (Homo sapiens, UniProt Q15835); settings: GRK1
various kinases [15] = molecular target: various kinases (Homo sapiens, UniProt Q86YV6); settings: MYLK4
various kinases (Homo sapiens, UniProt Q86YV6), sequence (Q86YV6 whole entry): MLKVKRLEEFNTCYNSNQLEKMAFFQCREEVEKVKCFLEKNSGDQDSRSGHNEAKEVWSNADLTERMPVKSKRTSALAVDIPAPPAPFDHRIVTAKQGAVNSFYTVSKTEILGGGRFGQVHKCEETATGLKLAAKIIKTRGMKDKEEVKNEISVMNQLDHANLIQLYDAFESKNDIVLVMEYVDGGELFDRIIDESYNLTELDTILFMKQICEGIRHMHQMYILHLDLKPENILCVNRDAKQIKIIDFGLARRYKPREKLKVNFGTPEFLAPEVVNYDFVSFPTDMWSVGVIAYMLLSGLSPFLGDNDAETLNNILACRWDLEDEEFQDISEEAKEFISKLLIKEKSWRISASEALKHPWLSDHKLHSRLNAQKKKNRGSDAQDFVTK

various kinases [16] = molecular target: various kinases (Homo sapiens, UniProt Q8N5S9); settings: CAMKK1 (CAMKKA)
various kinases [17] = molecular target: various kinases (Homo sapiens, UniProt Q92918); settings: MAP4K1 (HPK1)
various kinases [18] = molecular target: various kinases (Homo sapiens, UniProt Q96RR4); settings: CAMKK2 (CaMKK beta)
various kinases [19] = molecular target: various kinases (Homo sapiens, UniProt Q9BWU1)
various kinases [20] = molecular target: various kinases (Homo sapiens, UniProt Q9H2G2); settings: kinase SLK; LanthaScreen Binding
various kinases [21] = molecular target: various kinases (Homo sapiens, UniProt Q9H4A3); settings: kinase WNK1; LanthaScreen Binding
various kinases (Homo sapiens, UniProt Q9H4A3), sequence (Q9H4A3 whole entry): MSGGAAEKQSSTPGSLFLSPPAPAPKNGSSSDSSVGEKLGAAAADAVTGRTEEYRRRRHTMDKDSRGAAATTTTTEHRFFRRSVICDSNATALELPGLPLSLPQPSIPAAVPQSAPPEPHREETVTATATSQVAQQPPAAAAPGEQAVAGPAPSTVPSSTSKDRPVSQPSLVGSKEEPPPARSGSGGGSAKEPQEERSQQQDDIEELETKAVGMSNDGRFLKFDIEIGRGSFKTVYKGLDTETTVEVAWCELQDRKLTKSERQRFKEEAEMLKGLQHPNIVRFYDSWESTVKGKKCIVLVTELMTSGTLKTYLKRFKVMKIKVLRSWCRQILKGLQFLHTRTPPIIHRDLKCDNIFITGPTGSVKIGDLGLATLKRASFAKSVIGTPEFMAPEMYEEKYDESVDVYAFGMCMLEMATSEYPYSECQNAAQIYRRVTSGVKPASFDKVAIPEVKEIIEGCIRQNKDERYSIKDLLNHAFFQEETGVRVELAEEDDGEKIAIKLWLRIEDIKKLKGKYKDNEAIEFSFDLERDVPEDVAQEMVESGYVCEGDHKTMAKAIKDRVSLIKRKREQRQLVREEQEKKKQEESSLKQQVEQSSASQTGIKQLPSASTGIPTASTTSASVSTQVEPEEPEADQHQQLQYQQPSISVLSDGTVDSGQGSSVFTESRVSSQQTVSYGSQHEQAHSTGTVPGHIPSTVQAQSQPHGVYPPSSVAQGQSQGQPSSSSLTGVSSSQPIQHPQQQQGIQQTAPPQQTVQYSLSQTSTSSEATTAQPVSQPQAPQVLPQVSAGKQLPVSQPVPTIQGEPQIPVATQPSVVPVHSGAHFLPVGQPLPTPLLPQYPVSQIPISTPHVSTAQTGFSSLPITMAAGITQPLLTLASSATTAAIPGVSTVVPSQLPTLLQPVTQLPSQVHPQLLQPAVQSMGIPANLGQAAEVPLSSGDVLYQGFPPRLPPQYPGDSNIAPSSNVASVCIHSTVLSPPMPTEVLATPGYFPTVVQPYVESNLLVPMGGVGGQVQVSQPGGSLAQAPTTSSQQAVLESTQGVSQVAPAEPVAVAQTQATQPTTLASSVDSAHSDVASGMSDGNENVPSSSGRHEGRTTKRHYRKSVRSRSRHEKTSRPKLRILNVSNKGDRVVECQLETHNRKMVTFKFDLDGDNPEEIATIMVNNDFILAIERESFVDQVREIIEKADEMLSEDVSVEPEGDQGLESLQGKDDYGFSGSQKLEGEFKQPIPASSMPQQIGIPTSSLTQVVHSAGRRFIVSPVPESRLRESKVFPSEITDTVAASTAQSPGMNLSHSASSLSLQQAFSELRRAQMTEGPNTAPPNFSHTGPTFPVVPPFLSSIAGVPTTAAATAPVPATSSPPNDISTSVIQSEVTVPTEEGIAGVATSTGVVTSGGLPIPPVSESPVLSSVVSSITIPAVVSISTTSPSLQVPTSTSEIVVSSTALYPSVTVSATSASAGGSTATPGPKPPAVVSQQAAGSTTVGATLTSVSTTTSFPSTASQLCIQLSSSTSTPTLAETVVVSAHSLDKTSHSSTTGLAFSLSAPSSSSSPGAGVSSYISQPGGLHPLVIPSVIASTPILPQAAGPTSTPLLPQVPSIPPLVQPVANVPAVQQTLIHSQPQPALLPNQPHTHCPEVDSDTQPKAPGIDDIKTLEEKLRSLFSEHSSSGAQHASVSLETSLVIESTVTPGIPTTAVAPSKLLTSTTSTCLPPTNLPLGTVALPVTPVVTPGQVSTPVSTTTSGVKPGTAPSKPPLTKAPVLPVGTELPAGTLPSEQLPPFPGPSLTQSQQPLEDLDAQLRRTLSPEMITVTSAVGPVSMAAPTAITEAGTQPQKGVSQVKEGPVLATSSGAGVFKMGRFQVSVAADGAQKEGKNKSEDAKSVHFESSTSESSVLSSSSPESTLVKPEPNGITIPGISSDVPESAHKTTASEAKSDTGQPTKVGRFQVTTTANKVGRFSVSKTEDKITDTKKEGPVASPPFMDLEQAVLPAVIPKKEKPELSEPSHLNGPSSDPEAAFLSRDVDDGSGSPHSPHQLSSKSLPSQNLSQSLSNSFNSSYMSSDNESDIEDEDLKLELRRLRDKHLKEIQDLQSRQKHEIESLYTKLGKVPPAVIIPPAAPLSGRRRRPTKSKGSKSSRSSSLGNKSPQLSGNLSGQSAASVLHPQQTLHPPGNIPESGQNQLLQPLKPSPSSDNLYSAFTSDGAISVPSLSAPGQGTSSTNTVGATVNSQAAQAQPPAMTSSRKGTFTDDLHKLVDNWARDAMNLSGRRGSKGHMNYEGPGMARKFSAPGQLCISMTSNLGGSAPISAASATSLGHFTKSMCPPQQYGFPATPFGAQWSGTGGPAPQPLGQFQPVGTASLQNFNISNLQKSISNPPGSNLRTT

various kinases [22] = molecular target: various kinases (Homo sapiens, UniProt Q9NY57); settings: kinase STK32B (YANK2); LanthaScreen Binding
various kinases [23] = molecular target: T1, various kinases (Homo sapiens, UniProt Q9UKI8); settings: kinase TLK1; LanthaScreen Binding
T1 sequence (Q9UKI8 1-766): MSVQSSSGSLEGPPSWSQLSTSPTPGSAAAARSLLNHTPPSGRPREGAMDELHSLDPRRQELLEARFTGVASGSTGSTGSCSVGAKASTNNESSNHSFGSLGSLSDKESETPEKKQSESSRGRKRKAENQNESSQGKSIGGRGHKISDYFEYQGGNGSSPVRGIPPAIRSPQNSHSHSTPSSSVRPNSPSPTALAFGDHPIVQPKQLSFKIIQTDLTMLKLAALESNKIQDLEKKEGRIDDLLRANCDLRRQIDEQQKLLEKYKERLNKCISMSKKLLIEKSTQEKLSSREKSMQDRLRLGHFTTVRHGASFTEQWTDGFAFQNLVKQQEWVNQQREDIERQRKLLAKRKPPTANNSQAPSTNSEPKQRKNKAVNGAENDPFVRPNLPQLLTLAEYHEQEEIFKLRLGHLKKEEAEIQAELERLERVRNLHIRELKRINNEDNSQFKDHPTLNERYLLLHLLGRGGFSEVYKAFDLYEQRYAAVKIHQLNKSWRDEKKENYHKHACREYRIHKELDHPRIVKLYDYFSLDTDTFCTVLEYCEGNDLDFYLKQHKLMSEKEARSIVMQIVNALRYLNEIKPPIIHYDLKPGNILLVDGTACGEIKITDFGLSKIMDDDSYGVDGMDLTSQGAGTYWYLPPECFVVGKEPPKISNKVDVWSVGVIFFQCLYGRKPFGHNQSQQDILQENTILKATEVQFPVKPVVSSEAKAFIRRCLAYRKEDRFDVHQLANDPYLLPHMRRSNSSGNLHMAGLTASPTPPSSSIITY

various kinases [24] = molecular target: various kinases (Homo sapiens, UniProt Q9UM73, L1196M); settings: ALK L1196M
various kinases [25] = molecular target: various kinases (Homo sapiens, UniProt Q9UM73, R1275Q); settings: ALK R1275Q
various kinases [26] = molecular target: various kinases (Homo sapiens, UniProt Q9UPZ9); settings: ICK

COc1ccc2c(c1)[C@]1(C[C@H]1c1ccc3c(/C=C/c4ccc(CN5C[C@@H](C)O[C@@H](C)C5)cc4)n[nH]c3c1)C(=O)N2 [CFI-400945]
% Inhibition Average (various kinases [1]): 1%
% Inhibition Duplicate #1 (various kinases [1]): -1%
% Inhibition Duplicate #2 (various kinases [1]): 4%
% Inhibition (various kinases [2]): -4% and 2%
% Inhibition (various kinases [3]): 72%
% Inhibition Average (various kinases [4]): -3%
% Inhibition Duplicate #1 (various kinases [4]): -6%
% Inhibition Duplicate #2 (various kinases [4]): -1%
% Inhibition Average (various kinases [5]): 27%
% Inhibition Duplicate #1 (various kinases [5]): 26%
% Inhibition Duplicate #2 (various kinases [5]): 28%
% Inhibition (various kinases [6]): 44% and 48%
% Inhibition Average (various kinases [7]): -4%
% Inhibition Duplicate #1 (various kinases [7]): -6%
% Inhibition Duplicate #2 (various kinases [7]): -3%
% Inhibition (various kinases [8]): -4% and -2%
% Inhibition (various kinases [9]; CDK9 (Inactive)): 13% and 12%
% Inhibition (various kinases [9]; CDK9/cyclin K): -3% and -6%
% Inhibition (various kinases [10]; AMPK (A2/B2/G1)): 14% and 19%
% Inhibition (various kinases [10]; AMPK (A2/B2/G2)): 14% and 12%
% Inhibition Average (various kinases [11]): 6%
% Inhibition Duplicate #1 (various kinases [11]): 5%
% Inhibition Duplicate #2 (various kinases [11]): 6%
% Inhibition (various kinases [12]): -2% and 1%
% Inhibition (various kinases [13]): 46% and 45%
% Inhibition (various kinases [14]): 22% and 13%
% Inhibition (various kinases [15]): 7% and 13%
% Inhibition (various kinases [16]): -4% and -3%
% Inhibition (various kinases [17]): 45% and 35%
% Inhibition (various kinases [18]): 33% and 23%
% Inhibition (various kinases [19]; CDK11 (Inactive)): -3% and -1%
% Inhibition (various kinases [19]; CDK11/cyclin C): 16% and 13%
% Inhibition Average (various kinases [20]): 5%
% Inhibition Duplicate #1 (various kinases [20]): 4%
% Inhibition Duplicate #2 (various kinases [20]): 6%
% Inhibition Average (various kinases [21]): 11%
% Inhibition Duplicate #1 (various kinases [21]): 14%
% Inhibition Duplicate #2 (various kinases [21]): 8%
% Inhibition Average (various kinases [22]): 4%
% Inhibition Duplicate #1 (various kinases [22]): -1%
% Inhibition Duplicate #2 (various kinases [22]): 9%
% Inhibition Average (various kinases [23]): 0%
% Inhibition Duplicate #1 (various kinases [23]): -1%
% Inhibition Duplicate #2 (various kinases [23]): 0%
% Inhibition (various kinases [24]): 14% and 25%
% Inhibition (various kinases [25]): 65%
IC50 (various kinases [25]): 444 nM
% Inhibition (various kinases [26]): 8% and 5%
